Experimental data published in US7402575B2, “Methods of treating inflammation” (priority 2003, dated 2008).
Entries after “also recorded” stand apart in the source; their conditions may differ.

System: E. coli sepsis in dogs
Test: Early Treatment Study: TAC given 1.5 h after sepsis induced, hemodynamics
Type: in vivo, dog
Settings: for Arterial pH / HR / Hct / Lactate / Pwp / SVR: mean±SE, n=5
Method: In all of the studies outlined, the animals were randomized into treatment and nontreatment placebo groups (see below). The E. coli model used in these studies was identical to that previously described (6). Sepsis was induced by the intravenous infusion of 10^10 colony forming units of live E. coli (designation 011:B4). The bacteria were suspended in normal saline solution and were given over 0.5 hour. A constant infusion of approximately 5×10^9 colony forming units/hour of E. coli was then maintained for the remainder of the experiment.
The animals (16-24 kg) were initially anesthetized with thiopental sodium (20 mg/kg, intravenously) and constantly infused with sufentanil citrate (1 ug/min) and midazolam (5 ug/kg/min) (33). Drug rates were adjusted as required to abolish the palpebral reflex. The animals were placed in the supine position; the trachea was intubated with an endotracheal tube; and the lungs were mechanically ventilated at a tidal volume of 20 ml/kg. The ventilator rate was initially set to maintain blood pH at approximately 7.35 and was increased as necessary to reverse the metabolic acidosis that developed over the course of the study. Approximately 100% oxygen was inspired, so that hypoxemia would not affect the results of the study.
Under sterile conditions, the right jugular vein was percutaneously cannulated with an introducer (Arrow International, Reading, Pa.). A thermister tipped catheter was advanced from the jugular vein into the pulmonary artery to measure mean pulmonary arterial pressure (Ppa), mean pulmonary capillary wedge pressure (Pwp), mean right atrial pressure (Pra), thermodilution cardiac output (CO, Columbus Instruments, OH), and to obtain mixed venous oxygen blood samples. Another introducer was placed into the left jugular vein for administration of intravenous saline solution and the treatment or placebo drug (see below). A polyethylene catheter was also percutaneously placed into the femoral artery to measure mean blood pressure (MAP), and to obtain samples of blood for blood gas analysis, blood hematocrit (Hct), lactate concentrations, and blood cultures in some cases. Lactate was measured by an automated lactate dehydrogenase based assay (34) and was performed only in ETS and LTS because of equipment difficulties in the Pretreatment Study.
All catheters were connected to transducers (Cobe Laboratories), were referenced relative to the left atrium and were connected to a chart recorder (Astro-Med, W Warwick, R.I.). Heart rate (HR) was measured from the recorder tracing. Stroke-volume (SV) was calculated as CO/HR. Systemic vascular resistance (SVR) was calculated from [(MAP-Pra)/CO]×80. At each measurement interval (see below), a full set of measurements included MAP, CO, Ppa, Pra, Pwp, Hct, HR, SV, and arterial and mixed venous blood samples.
In the analysis, stroke work (SW) was the primary index of cardiac performance and the primary hemodynamic endpoint chosen in the in vivo studies (35,18) (see Discussion). At constant preload, SW reflects both the decreases in afterload and the changes in contractile function that accompany sepsis. SW was determined at approximately the same Pwp at each measurement interval. The baseline Pwp usually averaged ≈8-10 mmHg, and normal saline solution was given as necessary to maintain Pwp constant over the experimental period. SW was calculated from SV (MAP-Pwp).
Early Treatment Study. The purpose of this study was to assess the effect of TAC when treatment was administered during sepsis, but before myocardial depression developed. Treatment was administered at 1.5 hours after bacteremia was begun (6). Based on the lack of response of some animals in the LTS, the initial dose of TAC was increased to 400 mg, and followed by 50 mg/h mixed in 50 cc D5W over the remainder of the study. The placebo group received an identical amount of D5W over the course of the study.

CC(=O)N[C@H]1[C@H](O[C@H]2[C@H](O)[C@@H](NC(C)=O)C(O)O[C@@H]2CO)O[C@H](CO)[C@@H](O[C@@H]2O[C@H](CO)[C@@H](O)[C@H](O)[C@H]2NC(C)=O)[C@@H]1O (stereo partly drawn) [TAC, N,N′,N″ triacetylglucosamine]
CO over the course of sepsis (6 h): increased over the course of sepsis as compared with the nontreated group; also recorded: significant increases | SV over the course of sepsis (6 h): showed a similar finding | Arterial pH (6 h after sepsis initiated): 7.24 ± .03 | HR (6 h after sepsis initiated): 94 ± 8 beats/min | Hct (6 h after sepsis initiated): 30 ± 4% | Lactate (6 h after sepsis initiated): 1 ± .1 mM | Pwp (6 h after sepsis initiated): 10.9 ± 1 mmHg | SVR (6 h after sepsis initiated): 1792 ± 233 dynes s cm^−5 | Arterial pH (baseline): 7.23 ± .03 | HR (baseline): 68 ± 9 beats/min | Hct (baseline): 31 ± 2% | Lactate (baseline): 1 ± .1 mM | Pwp (baseline): 10 ± .5 mmHg | SVR (baseline): 2160 ± 581 dynes s cm^−5 | MAP over the 6 hrs of sepsis (treatment group): increased in 4 of the 5 dogs
